Measurements from patent publication US5693617A, “Inhibitors of the 26s proteolytic complex and the 20s proteasome contained therein” (ProScript, Inc., priority 1995, dated 1997).
Entries after “also recorded” stand apart in the source; their conditions may differ. Non-standard residues stand in square brackets, D forms with d. Residues, ends and D or L forms follow the SMILES beside them. Nle = CCCC[C@H](N)C(=O)O

Assays:
[1] = tested on: mouse B lymphoblastoid cell line (LB27.4); test: MHC-I antigen presentation, electroporated antigen-presenting cells; format: cell-based
Method: Antigen-presenting cells (APCs)--mouse B lymphoblastoid cell line (LB27.4)--were washed free of serum and loaded with an ovalbumin peptide (residues 257-263), which corresponds to the sequence these cells naturally generate and present. The APCs were incubated 1 hr at 37° C., electroporated with antigen, incubated 10 min on ice and washed. The antigen loaded cells were incubated 2 hrs at 37° C., fixed with paraformaldehyde, and washed. MG 101 at the concentrations indicated in FIG. 5 was present in all steps prior to fixation. APCs were assayed for antigen presentation as described in Rock et al., J. Immunol. 145:804-811 (1990) and Carbone et al., J. Exp Med. 171:377-387 (1990). […] In the left panel, APCs were treated with (open circles) or without (closed circles) MG 101 and electroporated with ovalbumin. In the right panel, APCs were treated with (open circles) or without (closed circles) MG 101 and electroporated with ovalbumin peptide.

rat diaphragm muscle = test: Protein degradation in incubated rat diaphragm
Method: Rat diaphragm muscle was cut into quarters and incubated in medium containing a mixture of amino acids, insulin, inhibitors of lysosomal and calcium dependent proteolysis, and MG 101 at the concentrations shown in FIG. 2. After 1 hour, ^3 H-phenylalanine was added and the incubation continued for 2 hours. Under these conditions, the ATP-dependent ubiquitin pathway is largely responsible for muscle protein degradation. After incubation, the tissue was homogenized and free tyrosine of the homogenate and medium was assayed separately. ^3 -phenylalanine incorporation into protein was also measured. Values are the means +SE of data from 7 animals. Protein synthesis was calculated from the incorporation of ^3 H-phenylalanine, and net protein breakdown was calculated from the release of tyrosine into the incubation medium. The total rate of protein breakdown is calculated from the equation:
Total protein breakdown=Net protein breakdown+Protein synthesis

CCCC[C@@H](C=O)NC(=O)[C@H](CC(C)C)NC(=O)[C@H](CC(C)C)NC(C)=O [MG 101, Ac-Leu-Leu-Nle-H] (Ac-Leu-Leu-[Nle]-aldehyde)
MHC-I presentation of ovalbumin peptide ([1]; APCs electroporated with ovalbumin peptide, FIG. 5 right panel): fails to block the presentation of the specific peptide; also recorded: does not inhibit the presentation of electroporated peptide | MHC-I presentation of ovalbumin ([1]; APCs electroporated with ovalbumin, FIG. 5 left panel): inhibits the presentation of ovalbumin with class I MHC molecules; also recorded: inhibits presentation of antigen from ovalbumin | Amino acid pools in incubated muscle (rat diaphragm muscle): nor does it significantly alter amino acid pools | Protein synthesis in incubated muscle (rat diaphragm muscle; 3H-phenylalanine incorporation): does not inhibit protein synthesis | Protein degradation in incubated rat diaphragm (rat diaphragm muscle; lysosomal and calcium dependent proteolysis inhibited, FIG. 2): inhibits the breakdown of muscle protein; also recorded: inhibition of protein degradation
